Experimental data taken from PubChem BioAssay (NCI).
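Cultured in 96-well plates, cells were exposed to test compound for 48 hours across five concentrations. Here, GI50 denotes the concentration required for 50% inhibition of growth. TGI marks complete inhibition of growth.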

What was measured:
Experiment in all cases: growth of human tumour cells (NCI), 48 h
[1] = system: A498 renal
[2] = system: ACHN renal
[3] = system: CAKI-1 renal
[4] = system: COLO 205 colon
[5] = system: DU-145 prostate
[6] = system: HL-60(TB) leukemia
[7] = system: HS 578T breast
[8] = system: KM12 colon
[9] = system: MCF7 breast
[10] = system: MDA-MB-231 breast
[11] = system: MDA-MB-435
[12] = system: NCI-H226 lung
[13] = system: NCI/ADR-RES ovarian
[14] = system: OVCAR-4 ovarian
[15] = system: OVCAR-5 ovarian
[16] = system: SF-539 CNS
[17] = system: SK-MEL-2 melanoma
[18] = system: SK-MEL-28 melanoma
[19] = system: SK-OV-3 ovarian
[20] = system: SN12C renal
[21] = system: SNB-75 CNS
[22] = system: T-47D breast
[23] = system: TK-10 renal
[24] = system: UACC-257 melanoma
[25] = system: UACC-62 melanoma

SMILES: Cc1ccc(NC(=O)c2ccc(CN3CCN(C)CC3)c(I)c2)cc1Oc1ccc(-c2[nH]nc3ncnc(N)c23)cc1
- GI50 [1]: 18.8 µM
- TGI [1]: 38.3 µM
- GI50 [2]: 1.8 µM
- TGI [2]: 3.33 µM
- GI50 [3]: 12 µM
- TGI [3]: 28.1 µM
- GI50 [4]: 1.73 µM
- TGI [4]: 5.08 µM
- GI50 [5]: 1.88 µM
- TGI [5]: 3.45 µM
- GI50 [6]: 4.42 µM
- TGI [6]: > 100 µM
- GI50 [7]: 1.77 µM
- TGI [7]: 5.09 µM
- GI50 [8]: 1.79 µM
- TGI [8]: 3.59 µM
- GI50 [9]: 1.35 µM
- TGI [9]: 2.94 µM
- GI50 [10]: 1.85 µM
- TGI [10]: 3.47 µM
- GI50 [11]: 1.58 µM
- TGI [11]: 3.01 µM
- GI50 [12]: 23.2 µM
- TGI [12]: 84.9 µM
- GI50 [13]: 3.93 µM
- TGI [13]: 40.7 µM
- GI50 [14]: 18 µM
- TGI [14]: 40.7 µM
- GI50 [15]: 1.94 µM
- TGI [15]: 3.52 µM
- GI50 [16]: 1.26 µM
- TGI [16]: 2.68 µM
- GI50 [17]: 24.7 µM
- TGI [17]: 80.1 µM
- GI50 [18]: 1.63 µM
- TGI [18]: 3.12 µM
- GI50 [19]: 26.2 µM
- TGI [19]: 63.9 µM
- GI50 [20]: 12.1 µM
- TGI [20]: 33.8 µM
- GI50 [21]: 0.458 µM
- TGI [21]: 20.8 µM
- GI50 [22]: 2.72 µM
- TGI [22]: > 100 µM
- GI50 [23]: 5.33 µM
- TGI [23]: 28 µM
- GI50 [24]: 2.03 µM
- TGI [24]: 4.59 µM
- GI50 [25]: 1.73 µM
- TGI [25]: 3.35 µM
